Results as given in the supplement of paper PMC10331698.
± gives the standard deviation of the averaged measurements.

Tests used:
Assay in all cases: level (log10 ratio to DMSO vehicle control); higher = higher biomarker level / cell amount than vehicle control
[1] = compound: CO[Si](C)(CCC(F)(F)C(F)(F)C(F)(F)C(F)(F)C(F)(F)C(F)(F)F)OC [Dimethoxymethyl((perfluorohexyl)ethyl)silane] (in DMSO)
Protocol: (§1)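 BioMAP Diversity Plus panel of 12 human primary cell co-culture systems (3C, 4H, LPS, SAg, BT, BF4T, BE3C, CASM3C, HDF3CGF, KF3CT, MyoF, Mphg). Compounds were added 1 h before stimulation and left for 24 h (MyoF 48 h; BT 72 h for soluble read-outs or 6 d for IgG). Biomarkers were read by ELISA, cytotoxicity by SRB, PBMC viability and proliferation by Alamar Blue. Each well value was divided by the mean of 8 DMSO control wells on the same plate and log10 transformed; duplicate blinded samples were tested at 4 concentrations.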

[2] = compound: CN(C(=O)C(F)(F)C(F)(F)C(F)(F)F)[Si](C)(C)C [N-Methyl-N-trimethylsilylheptafluorobutyramide] (in DMSO)
Protocol: as §1

[3] = compound: O=S(=O)(O)CCC(F)(F)C(F)(F)C(F)(F)C(F)(F)C(F)(F)C(F)(F)C(F)(F)C(F)(F)F [8:2 Fluorotelomer sulfonic acid] (in DMSO)
Protocol: as §1

[4] = compound: C=C(C)C(=O)OCCC(F)(F)C(F)(F)C(F)(F)C(F)(F)C(F)(F)C(F)(F)C(F)(F)C(F)(F)F [8:2 Fluorotelomer methacrylate] (in DMSO)
Protocol: as §1

[5] = compound: O=C(O)C(F)(F)C(F)(F)C(F)(F)OC(F)(F)F [Perfluoro(4-methoxybutanoic) acid] (in DMSO)
Protocol: as §1

[6] = compound: OCC(F)(F)C(F)(F)C(F)(F)C(F)F [1H,1H,5H-Perfluoropentanol] (in DMSO)
Protocol: as §1

[7] = compound: O=S(=O)(O)C(F)(F)C(F)(F)OC(F)(F)C(F)(F)F [Perfluoro(2-ethoxyethane)sulfonic acid] (in DMSO)
Protocol: as §1

Test System | level (log10) ([1]; 6700 nM) | level (log10) ([1]; 20000 nM) | level (log10) ([2]; 6700 nM) | level (log10) ([2]; 20000 nM) | level (log10) ([2]; 60000 nM) | level (log10) ([3]; 6700 nM) | level (log10) ([3]; 20000 nM) | level (log10) ([3]; 60000 nM) | level (log10) ([4]; 6700 nM) | level (log10) ([4]; 20000 nM) | level (log10) ([5]; 6700 nM) | level (log10) ([5]; 20000 nM) | level (log10) ([5]; 60000 nM) | level (log10) ([6]; 6700 nM) | level (log10) ([6]; 20000 nM) | level (log10) ([6]; 60000 nM) | level (log10) ([7]; 6700 nM) | level (log10) ([7]; 20000 nM) | level (log10) ([7]; 60000 nM)
SAg:CD40 | -0.0095 ± 0.0078 | -0.022 ± 0.0042 | -0.0185 ± 0.059 | -0.009 ± 0.0042 | -0.0075 ± 0.00071 | -0.013 ± 0.051 | -0.0215 ± 0.021 | -0.071 ± 0.051 | -0.0265 ± 0.035 | -0.0335 ± 0.0078 | -0.029 ± 0.023 | -0.034 ± 0.045 | -0.034 ± 0.052 | -0.055 ± 0.033 | -0.018 ± 0.031 | -0.0165 ± 0.073 | 0.0065 ± 0.0035 | 0.024 ± 0.0085 | 0.017 ± 0.0085
SAg:CD62E/E-Selectin | -0.0185 ± 0.019 | 0.0235 ± 0.0035 | -0.017 ± 0.0085 | -0.017 ± 0.017 | -0.0225 ± 0.021 | 0.0085 ± 0.042 | 0.0465 ± 0.013 | 0.109 ± 0.0042 | -0.005 ± 0.013 | 0.0205 ± 0.023 | -0.01 ± 0.0028 | -0.0145 ± 0.037 | -0.0125 ± 0.037 | -0.011 ± 0.018 | 0.008 ± 0.0071 | 0.0325 ± 0.035 | 0.0015 ± 0.0021 | 0.001 ± 0.0071 | 0.033 ± 0.018
SAg:CD69 | -0.032 ± 0.033 | -0.0115 ± 0.011 | -0.024 ± 0.0014 | 0.0015 ± 0.0078 | -0.0025 ± 0.015 | -0.025 ± 0.057 | -0.0205 ± 0.04 | -0.043 ± 0.075 | -0.013 ± 0.016 | -0.022 ± 0.013 | 0.027 ± 0.076 | 0.0345 ± 0.066 | 0.045 ± 0.086 | -0.015 ± 0.018 | 0.0185 ± 0.0092 | 0.0045 ± 0.023 | 0.0055 ± 0.032 | 0.0065 ± 0.016 | 0.015 ± 0.021
SAg:CXCL8/IL-8 | -0.0085 ± 0.012 | 0.0145 ± 0.018 | -0.0015 ± 0.018 | -0.0385 ± 0.019 | -0.007 ± 0.035 | -0.0075 ± 0.076 | -0.009 ± 0.014 | 0.071 ± 0.044 | -0.0215 ± 0.047 | 0.007 ± 0.021 | 0.007 ± 0.0085 | 0.005 ± 0.017 | 0.01 ± 0.034 | 0.006 ± 0.033 | -0.0065 ± 0.00071 | 0.0275 ± 0.052 | 0.0225 ± 0.057 | 0.0465 ± 0.016 | 0.0945 ± 0.0035
SAg:CXCL9/MIG | 0.0075 ± 0.0021 | -0.0035 ± 0.0035 | 0.007 ± 0.0057 | -0.009 ± 0.0014 | -0.0135 ± 0.0078 | 0.0005 ± 0.018 | -0.008 ± 0.0028 | 0.001 ± 0.0057 | 0.001 ± 0.0099 | 0.002 ± 0.0014 | -0.0025 ± 0.00071 | -0.0005 ± 0.0092 | 0.011 ± 0.0028 | -0.0105 ± 0.00071 | 0.0005 ± 0.013 | 0.008 ± 0.023 | 0.007 | -0.0025 ± 0.0078 | 0.0035 ± 0.005
SAg:PBMC Cytotoxicity | -0.0045 ± 0.012 | 0.019 ± 0.0057 | -0.0155 ± 0.00071 | 0.011 ± 0.014 | 0.011 ± 0.025 | -0.0125 ± 0.015 | 0 ± 0.0042 | 0.0075 ± 0.0021 | -0.0215 ± 0.012 | 0.018 ± 0.011 | 0.046 ± 0.038 | -0.007 ± 0.024 | 0.019 ± 0.0028 | -0.005 ± 0.0042 | 0.0025 ± 0.013 | 0.035 ± 0.058 | -0.025 ± 0.038 | 0.0045 ± 0.0092 | 0.0085 ± 0.0021
SAg:Proliferation | 0.051 ± 0.048 | -0.004 ± 0.13 | 0.0395 ± 0.015 | 0.0565 ± 0.028 | 0.0635 ± 0.088 | -0.02 ± 0.054 | -0.0085 ± 0.011 | -0.0735 ± 0.0035 | -0.0045 ± 0.053 | 0.052 ± 0.0028 | -0.0095 ± 0.0021 | 0 ± 0.018 | -0.009 ± 0.0014 | -0.0155 ± 0.011 | -0.0635 ± 0.016 | 0.025 ± 0.055 | -0.0725 ± 0.012 | -0.048 ± 0.025 | -0.038 ± 0.024
SAg:SRB | -0.0125 ± 0.013 | 0.0045 ± 0.0035 | 0.0055 ± 0.013 | 0.013 ± 0.0042 | 0.008 ± 0.0099 | -0.0075 ± 0.0035 | -0.0095 ± 0.0035 | -0.0335 ± 0.011 | -0.009 ± 0.0014 | -0.011 ± 0.018 | -0.0145 ± 0.0078 | -0.023 ± 0.0099 | -0.017 ± 0.021 | -0.0075 ± 0.0021 | -0.009 ± 0.0014 | 0.001 ± 0.0085 | -0.0125 ± 0.013 | -0.0125 ± 0.0021 | -0.0185 ± 0.0092
